Experimental data taken from ChEMBL document CHEMBL3784948, “Pharmacokinetics of diclofenac and five metabolites after single doses in healthy volunteers and after repeated doses in patients” (Xenobiotica, 1988).

Key:
Type in all cases: ADME, organism-based
[1] = system: Homo sapiens; assay: Tmax in healthy volunteer (3 volunteers) assessed as 4',5-dihydroxy diclofenac at 100 mg, po administered as single dose by capillary column gas chromatographic method; details: in vivo
[2] = Total drug excretion in healthy volunteer (3 volunteers) urine assessed as 4',5-dihydroxy diclofenac at 100 mg, po administered as single dose measured over 96 hrs by capillary column gas chromatographic method; details: human, in vivo
[3] = system: Homo sapiens; assay: Apparent elimination half life in healthy volunteer (3 volunteers) assessed as 4',5-dihydroxy diclofenac at 100 mg, po administered as single dose by capillary column gas chromatographic method; details: in vivo
[4] = system: Homo sapiens; assay: AUC (0 to 96 hrs) in healthy volunteer (3 volunteers) assessed as 3'-hydroxy-4'-methoxy diclofenac at 100 mg, po administered as single dose by capillary column gas chromatographic method; set-up: dose 100 mg, time < 96 hr, route oral; details: in vivo
[5] = system: Homo sapiens; assay: AUC (0 to infinity) in healthy volunteer (2 volunteers) assessed as 3'-hydroxy-4'-methoxy diclofenac at 100 mg, po administered as single dose by capillary column gas chromatographic method; set-up: dose 100 mg, route oral, time infinity; details: in vivo
[6] = system: Homo sapiens; assay: Cmax in healthy volunteer (3 volunteers) assessed as 3'-hydroxy-4'-methoxy diclofenac at 100 mg, po administered as single dose by capillary column gas chromatographic method; set-up: dose 100 mg, route oral; details: in vivo
[7] = system: Homo sapiens; assay: Tmax in healthy volunteer (3 volunteers) assessed as 3'-hydroxy-4'-methoxy diclofenac at 100 mg, po administered as single dose by capillary column gas chromatographic method; details: in vivo
[8] = Total drug excretion in healthy volunteer (3 volunteers) urine assessed as 3'-hydroxy-4'-methoxy diclofenac at 100 mg, po administered as single dose measured over 96 hrs by capillary column gas chromatographic method; details: human, in vivo
[9] = system: Homo sapiens; assay: Apparent elimination half life in healthy volunteer (3 volunteers) assessed as 3'-hydroxy-4'-methoxy diclofenac at 100 mg, po administered as single dose by capillary column gas chromatographic method; details: in vivo
[10] = system: Homo sapiens; assay: AUC (0 to 72 hrs) in healthy volunteer assessed as 3'-hydroxy-4'-methoxy diclofenac at 100 mg, po administered as single dose by capillary column gas chromatographic method; set-up: time < 72 hr, dose 100 mg, route oral; details: in vivo
[11] = system: Homo sapiens; assay: AUC (0 to 96 hrs) in healthy volunteer (3 volunteers) at 100 mg, po administered as single dose by capillary column gas chromatographic method; set-up: time < 96 hr, dose 100 mg, route oral; details: in vivo
[12] = system: Homo sapiens; assay: AUC (0 to infinity) in healthy volunteer (3 volunteers) at 100 mg, po administered as single dose by capillary column gas chromatographic method; set-up: dose 100 mg, time infinity, route oral; details: in vivo
[13] = system: Homo sapiens; assay: Cmax in healthy volunteer (3 volunteers) at 100 mg, po administered as single dose by capillary column gas chromatographic method; set-up: dose 100 mg, route oral; details: in vivo
[14] = Tmax in healthy volunteer (3 volunteers) at 100 mg, po administered as single dose by capillary column gas chromatographic method; details: human, in vivo
[15] = Total drug excretion in healthy volunteer (3 volunteers) urine at 100 mg, po administered as single dose measured over 96 hrs by capillary column gas chromatographic method; details: human, in vivo
[16] = Apparent elimination half life in healthy volunteer (3 volunteers) at 100 mg, po administered as single dose by capillary column gas chromatographic method; details: human, in vivo, read-out: betat1/2(app) (converted)
[17] = system: Homo sapiens; assay: AUC (0 to 96 hrs) in healthy volunteer (3 volunteers) assessed as 4'-hydroxy diclofenac at 100 mg, po administered as single dose by capillary column gas chromatographic method; set-up: time < 96 hr, dose 100 mg, route oral; details: in vivo
[18] = system: Homo sapiens; assay: AUC (0 to infinity) in healthy volunteer (3 volunteers) assessed as 4'-hydroxy diclofenac at 100 mg, po administered as single dose by capillary column gas chromatographic method; set-up: dose 100 mg, route oral, time infinity; details: in vivo
[19] = system: Homo sapiens; assay: Cmax in healthy volunteer (3 volunteers) assessed as 4'-hydroxy diclofenac at 100 mg, po administered as single dose by capillary column gas chromatographic method; set-up: dose 100 mg, route oral; details: in vivo
[20] = system: Homo sapiens; assay: Tmax in healthy volunteer (3 volunteers) assessed as 4'-hydroxy diclofenac at 100 mg, po administered as single dose by capillary column gas chromatographic method; details: in vivo
[21] = Total drug excretion in healthy volunteer (3 volunteers) urine assessed as 4'-hydroxy diclofenac at 100 mg, po administered as single dose measured over 96 hrs by capillary column gas chromatographic method; details: human, in vivo
[22] = system: Homo sapiens; assay: Apparent elimination half life in healthy volunteer (3 volunteers) assessed as 4'-hydroxy diclofenac at 100 mg, po administered as single dose by capillary column gas chromatographic method; details: in vivo
[23] = system: Homo sapiens; assay: AUC (0 to 96 hrs) in healthy volunteer (3 volunteers) assessed as 3'-hydroxy diclofenac at 100 mg, po administered as single dose by capillary column gas chromatographic method; set-up: dose 100 mg, time < 96 hr, route oral; details: in vivo
[24] = system: Homo sapiens; assay: AUC (0 to 96 hrs) in healthy volunteer (3 volunteers) assessed as 5-hydroxy diclofenac at 100 mg, po administered as single dose by capillary column gas chromatographic method; set-up: dose 100 mg, time < 96 hr, route oral; details: in vivo
[25] = system: Homo sapiens; assay: AUC (0 to infinity) in healthy volunteer (3 volunteers) assessed as 5-hydroxy diclofenac at 100 mg, po administered as single dose by capillary column gas chromatographic method; set-up: dose 100 mg, route oral, time infinity; details: in vivo
[26] = system: Homo sapiens; assay: Cmax in healthy volunteer (3 volunteers) assessed as 5-hydroxy diclofenac at 100 mg, po administered as single dose by capillary column gas chromatographic method; set-up: dose 100 mg, route oral; details: in vivo
[27] = system: Homo sapiens; assay: Tmax in healthy volunteer (3 volunteers) assessed as 5-hydroxy diclofenac at 100 mg, po administered as single dose by capillary column gas chromatographic method; details: in vivo
[28] = Total drug excretion in healthy volunteer (3 volunteers) urine assessed as 5-hydroxy diclofenac at 100 mg, po administered as single dose measured over 96 hrs by capillary column gas chromatographic method; details: human, in vivo
[29] = system: Homo sapiens; assay: Apparent elimination half life in healthy volunteer (3 volunteers) assessed as 5-hydroxy diclofenac at 100 mg, po administered as single dose by capillary column gas chromatographic method; details: in vivo
[30] = system: Homo sapiens; assay: AUC (0 to infinity) in healthy volunteer (3 volunteers) assessed as 3'-hydroxy diclofenac at 100 mg, po administered as single dose by capillary column gas chromatographic method; set-up: dose 100 mg, time infinity, route oral; details: in vivo
[31] = system: Homo sapiens; assay: Cmax in healthy volunteer (3 volunteers) assessed as 3'-hydroxy diclofenac at 100 mg, po administered as single dose by capillary column gas chromatographic method; set-up: dose 100 mg, route oral; details: in vivo
[32] = system: Homo sapiens; assay: Tmax in healthy volunteer (3 volunteers) assessed as 3'-hydroxy diclofenac at 100 mg, po administered as single dose by capillary column gas chromatographic method; details: in vivo
[33] = Total drug excretion in healthy volunteer (3 volunteers) urine assessed as 3'-hydroxy diclofenac at 100 mg, po administered as single dose measured over 96 hrs by capillary column gas chromatographic method; details: human, in vivo
[34] = system: Homo sapiens; assay: Apparent elimination half life in healthy volunteer (3 volunteers) assessed as 3'-hydroxy diclofenac at 100 mg, po administered as single dose by capillary column gas chromatographic method; details: in vivo
[35] = system: Homo sapiens; assay: AUC (0 to 96 hrs) in healthy volunteer (3 volunteers) assessed as 4',5-dihydroxy diclofenac at 100 mg, po administered as single dose by capillary column gas chromatographic method; set-up: time < 96 hr, dose 100 mg, route oral; details: in vivo
[36] = system: Homo sapiens; assay: AUC (0 to infinity) in healthy volunteer (3 volunteers) assessed as 4',5-dihydroxy diclofenac at 100 mg, po administered as single dose by capillary column gas chromatographic method; set-up: dose 100 mg, time infinity, route oral; details: in vivo
[37] = system: Homo sapiens; assay: Cmax in healthy volunteer (3 volunteers) assessed as 4',5-dihydroxy diclofenac at 100 mg, po administered as single dose by capillary column gas chromatographic method; set-up: dose 100 mg, route oral; details: in vivo
[38] = system: Plasma; assay: Steady state trough plasma concentration in chronic polyarthritis patient (6 patients) at 75 mg, po bid administered for 6 to 10 months by capillary column gas chromatographic method; details: human, in vivo
[39] = system: Plasma; assay: Steady state trough plasma concentration in chronic polyarthritis patient (6 patients) assessed as 4'-hydroxy diclofenac at 75 mg, po bid administered for 6 to 10 months by capillary column gas chromatographic method; details: human, in vivo
[40] = system: Plasma; assay: Steady state trough plasma concentration in chronic polyarthritis patient (6 patients) assessed as 5-hydroxy diclofenac at 75 mg, po bid administered for 6 to 10 months by capillary column gas chromatographic method; details: human, in vivo
[41] = system: Plasma; assay: Steady state trough plasma concentration in chronic polyarthritis patient (6 patients) assessed as 3'-hydroxy diclofenac at 75 mg, po bid administered for 6 to 10 months by capillary column gas chromatographic method; details: human, in vivo
[42] = system: Plasma; assay: Steady state trough plasma concentration in chronic polyarthritis patient (6 patients) assessed as 4',5-dihydroxy diclofenac at 75 mg, po bid administered for 6 to 10 months by capillary column gas chromatographic method; details: human, in vivo
[43] = system: Plasma; assay: Steady state trough plasma concentration in chronic polyarthritis patient (6 patients) assessed as 3'-hydroxy-4'-methoxy diclofenac at 75 mg, po bid administered for 6 to 10 months by capillary column gas chromatographic method; details: human, in vivo

## O=C([O-])Cc1ccccc1Nc1c(Cl)cccc1Cl.[Na+] [DICLOFENAC SODIUM]
[1]
  Tmax: 40.2 min
[2]
  Drug excretion: 5.86 %ID
[3]
  betat1/2(app): 2.6 h
[4]
  AUC: 35.22 nmol·h/g
[5]
  AUC: 61.82 nmol·h/g
[6]
  Cmax: 0.49 nmol/g
[7]
  Tmax: 720 min
[8]
  Drug excretion: 1.3 %ID
[9]
  betat1/2(app): 78 h
[10]
  AUC: 46.09 nmol·h/g
[11]
  AUC: 6.05 nmol·h/g
[12]
  AUC: 6.05 nmol·h/g
[13]
  Cmax: 9.73 nmol/g
[14]
  Tmax: 19.8 min
[15]
  Drug excretion: 4.45 %ID
[16]
  half-life: 60 min
[17]
  AUC: 2.43 nmol·h/g
[18]
  AUC: 2.43 nmol·h/g
[19]
  Cmax: 1.19 nmol/g
[20]
  Tmax: 19.8 min
[21]
  Drug excretion: 9.92 %ID
[22]
  betat1/2(app): 2 h
[23]
  AUC: 1.71 nmol·h/g
[24]
  AUC: 0.58 nmol·h/g
[25]
  AUC: 0.58 nmol·h/g
[26]
  Cmax: 0.45 nmol/g
[27]
  Tmax: 19.8 min
[28]
  Drug excretion: 4.66 %ID
[29]
  betat1/2(app): 1 h
[30]
  AUC: 1.71 nmol·h/g
[31]
  Cmax: 0.36 nmol/g
[32]
  Tmax: 19.8 min
[33]
  Drug excretion: 2.79 %ID
[34]
  betat1/2(app): 1.1 h
[35]
  AUC: 1.46 nmol·h/g
[36]
  AUC: 1.46 nmol·h/g
[37]
  Cmax: 0.44 nmol/g

## Cc1nnc(SCC2=C(C(=O)O)N3C(=O)[C@@H](NC(=O)Cn4cc(Cl)c(=O)c(Cl)c4)[C@H]3SC2)s1 [CEFAZEDONE]
[38]
  Cminss: 0.565 nmol/g
[39]
  Cminss: 0.438 nmol/g
[40]
  Cminss: 0.234 nmol/g
[41]
  Cminss: 0.302 nmol/g
[42]
  Cminss: 0.252 nmol/g
[43]
  Cminss: 3.687 nmol/g
